Source: patent US9096624B2 (OSI Pharmaceuticals, LLC, priority 2009, dated 2015)

Tests used:
[1] = target: T1, FAK (Homo sapiens, UniProt Q05397); test: Cell-based capture ELISA for inhibition of FAK autophosphorylation [pY397] in U87MG cells; conditions: Mean FAK Cell Mechanistic IC50 + 50% mP U87MG, + 50% mouse plasma
[2] = target: T1, FAK; test: biochemical

T1 sequence (Q05397 whole entry): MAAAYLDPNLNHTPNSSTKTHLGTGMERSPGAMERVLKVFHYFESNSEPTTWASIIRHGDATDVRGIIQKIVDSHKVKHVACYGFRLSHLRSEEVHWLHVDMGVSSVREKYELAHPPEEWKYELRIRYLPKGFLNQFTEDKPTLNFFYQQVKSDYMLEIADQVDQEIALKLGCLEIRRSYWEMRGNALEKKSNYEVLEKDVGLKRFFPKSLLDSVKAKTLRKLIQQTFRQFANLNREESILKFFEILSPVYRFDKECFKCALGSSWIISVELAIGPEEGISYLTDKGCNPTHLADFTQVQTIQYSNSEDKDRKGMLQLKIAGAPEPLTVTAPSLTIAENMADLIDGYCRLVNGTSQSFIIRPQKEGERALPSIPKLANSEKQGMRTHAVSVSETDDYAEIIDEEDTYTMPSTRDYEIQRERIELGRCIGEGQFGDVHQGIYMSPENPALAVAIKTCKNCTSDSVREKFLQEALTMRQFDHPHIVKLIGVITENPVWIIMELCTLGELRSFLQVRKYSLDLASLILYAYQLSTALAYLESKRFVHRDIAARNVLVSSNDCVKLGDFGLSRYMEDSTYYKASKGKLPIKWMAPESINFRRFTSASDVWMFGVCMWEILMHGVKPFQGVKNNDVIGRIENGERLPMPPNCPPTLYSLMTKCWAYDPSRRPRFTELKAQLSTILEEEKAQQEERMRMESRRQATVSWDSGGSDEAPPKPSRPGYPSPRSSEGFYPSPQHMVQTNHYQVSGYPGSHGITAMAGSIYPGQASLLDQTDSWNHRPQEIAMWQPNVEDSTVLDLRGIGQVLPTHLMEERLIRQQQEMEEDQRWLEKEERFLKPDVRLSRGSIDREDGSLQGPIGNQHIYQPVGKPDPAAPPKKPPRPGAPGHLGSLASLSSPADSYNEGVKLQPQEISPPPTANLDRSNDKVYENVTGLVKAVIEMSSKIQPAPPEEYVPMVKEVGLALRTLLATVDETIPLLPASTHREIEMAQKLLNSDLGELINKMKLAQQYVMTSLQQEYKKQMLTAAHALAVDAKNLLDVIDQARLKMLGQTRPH

Row | SMILES | IC50 [1] [nM] | IC50 [2] [nM]
1 | CCOP(=O)(Cc1ccc(Nc2ncc(C(F)(F)F)c(Nc3ccc([C@H]4CC[C@H](O)CC4)c4c3C(=O)N(C)C4)n2)c(OC)n1)OCC [Example 286, Diethyl [(5-{[4-{[7-(trans-4-hydroxycyclohexyl)-2-methyl-3-oxo-2,3-dihydro-1H-isoindol-4-yl]amino}-5-(trifluoromethyl)pyrimidin-2-yl]amino}-6-methoxypyridin-2-yl)methyl]phosphonate] | < 1000 | < 1000
2 | CCOP(=O)(Cc1ccc(Nc2ncc(C(F)(F)F)c(Nc3ccc(-c4ccc(C(=O)O)cc4)c4c3C(=O)N(C)C4)n2)c(OC)c1)OCC [Example 270, 4-(7-{[2-({4-[(diethoxyphosphoryl)methyl]-2-methoxyphenyl}amino)-5-(trifluoromethyl)pyrimidin-4-yl]amino}-2-methyl-1-oxo-2,3-dihydro-1H-isoindol-4-yl)benzoic acid] | 1000 to 10000 | < 1000
3 | CCOP(=O)(Cc1ccc(Nc2ncc(C(F)(F)F)c(Nc3ccc([C@H]4CC[C@@H](C(=O)NOC)CC4)c4c3C(=O)N(C)C4)n2)c(OC)c1)OCC [Example 276, Diethyl (3-methoxy-4-{[4-({7-[cis-4-(methoxycarbamoyl)cyclohexyl]-2-methyl-3-oxo-2,3-dihydro-1H-isoindol-4-yl}amino)-5-(trifluoromethyl)pyrimidin-2-yl]amino}benzyl)phosphonate] | < 1000 | < 1000
4 | CCOC(=O)Cn1cc(C)c(=O)c2c(Nc3nc(Nc4ccc(CP(=O)(OCC)OCC)cc4OC)ncc3C(F)(F)F)cccc21 [Example 301] | < 1000 | < 1000
5 | CCOP(=O)(Cc1cnc(Nc2ncc(C(F)(F)F)c(Nc3ccc([C@H]4CC[C@H](O)CC4)c4c3C(=O)N(C)C4)n2)c(OC)c1)OCC [Example 308, Diethyl [(6-{[4-{[7-(trans-4-hydroxycyclohexyl)-2-methyl-3-oxo-2,3-dihydro-1H-isoindol-4-yl]amino}-5-(trifluoromethyl)pyrimidin-2-yl]amino}-5-methoxypyridin-3-yl)methyl]phosphonate] | 1000 to 10000 | < 1000
6 | CCOP(=O)(Cc1ccc(Nc2ncc(C(F)(F)F)c(Nc3ccc([C@H]4CC[C@@H](C#N)CC4)c4c3C(=O)N(C)C4)n2)c(OC)c1)OCC [Example 283, Diethyl (4-{[4-{[7-(cis-4-cyanocyclohexyl)-2-methyl-3-oxo-2,3-dihydro-1H-isoindol-4-yl]amino}-5-(trifluoromethyl)pyrimidin-2-yl]amino}-3-methoxybenzyl)phosphonate] | < 1000 | < 1000
7 | CCOP(=O)(Cc1ccc(Nc2ncc(C(F)(F)F)c(Nc3ccc([C@H]4CC[C@](C)(C(=O)O)CC4)c4c3C(=O)N(C)C4)n2)c(OC)c1)OCC [Example 282, trans-4-(7-{[2-({4-[(Diethoxyphosphoryl)methyl]-2-methoxyphenyl}amino)-5-(trifluoromethyl)pyrimidin-4-yl]amino}-2-methyl-1-oxo-2,3-dihydro-1H-isoindol-4-yl)-1-methylcyclohexanecarboxylic acid] | < 1000 | < 1000
8 | CCOP(=O)(Cc1ccc(Nc2ncc(C(F)(F)F)c(Nc3ccc([C@H]4CC[C@@H](C(=O)O)CC4)c4c3C(=O)N(C)C4)n2)cn1)OCC [Example 267, cis-4-(7-{[2-({6-[(Diethoxyphosphoryl)methyl]pyridin-3-yl}amino)-5-(trifluoromethyl)pyrimidin-4-yl]amino}-2-methyl-1-oxo-2,3-dihydro-1H-isoindol-4-yl)cyclohexanecarboxylic acid] | 1000 to 10000 | > 10000
9 | CCOP(=O)(Cc1ccc(Nc2ncc(C(F)(F)F)c(Nc3ccc([C@H]4CC[C@@H](C(=O)OCCN(C)C)CC4)c4c3C(=O)N(C)C4)n2)c(OC)c1)OCC [Example 274, 2-(Dimethylamino)ethyl cis-4-(7-{[2-({4-[(diethoxyphosphoryl)methyl]-2-methoxyphenyl}amino)-5-(trifluoromethyl)pyrimidin-4-yl]amino}-2-methyl-1-oxo-2,3-dihydro-1H-isoindol-4-yl)cyclohexanecarboxylate] | < 1000 | < 1000
